The test system of one data set is mild asthmatics. The note with it: nebulized dry powder, 16 mild asthmatics, compared with placebo, cited from earlier work.
In the next data set the target is human lung tryptase. Briefly: β-Tryptase In-Vitro Enzyme Assay. It counts as biochemical. The note with it: human lung tryptase 1 nM, substrate H-D-HHT-Ala-Arg-pNa 500 μM, pH 7.4, room temperature. As to the method: The β-tryptase assay was conducted with human lung tryptase (Cortex Biochem #CP3033) in an aqueous buffer (10 mM Tris, 10 mM Hepes, 150 mM NaCl, 0.1% PEG 8000, pH 7.4) using the chromogenic substrate H-D-HHT-Ala-Arg-pNa. […] Percent inhibition was calculated by comparing the initial reaction velocity of samples without inhibitor to those with inhibitor. The initial reaction velocities were analyzed using Microsoft Excel.

The test system of data set [1] is antigen-induced allergic sheep. Kind of data set: Sheep Efficacy Model (antigen-induced allergic sheep asthma model). In kind it is in vivo. The note with it: 30 mg/kg BID oral gavage, two sheep. As to the method:
The in vivo efficacy of Compound 3 was evaluated in antigen-induced allergic sheep, which is a well-characterized asthma model (Abraham, W. M. Pulmonary Pharmacol. 1989, 2, 33-40). Compound 3 was administered via oral gavage to two sheep previously shown to be allergic responders to inhaled Ascaris suum antigen (FIG. 1). The compound was given at a dose of 30 mg/kg, BID, on day 1, and again on day 2 at 2 h prior to antigen challenge and then 4 h after antigen challenge. Airway resistance (SRL) was monitored for 8 h post antigen challenge and airway hyper-reactivity to carbachol (PC400) was measured 24 h post antigen challenge.

The test system of data set [2] is guinea pig model of allergic asthma. Briefly: Guinea Pig Efficacy Model (OVA allergic asthma). It counts as in vivo. The method, then: The in vivo efficacy of Compound 3 was evaluated in a guinea pig model of allergic asthma. In this model, guinea pigs were sensitized and challenged with chicken egg ovalbumin (OVA) according to the protocol of N. Smith and F. J. Johnson (Clin. Exp. Allergy 2005, 35, 522-530), with some slight modifications. Guinea pigs were sensitized with 80 mg of OVA and 80 mg of aluminum hydroxide administered intraperitoneally on day 0, then challenged with 0.03% OVA aerosol for 10 minutes on day 14. In the experiment measuring early phase pulmonary response (EAR), guinea pigs were challenged for an additional three minutes with 0.06% OVA aerosol. EAR was measured as enhanced pause (PenH) using BUXCO whole body plethysmography for 10 minutes immediately following the OVA aerosol challenge. The animals were then euthanized and assessed for bronchoalveolar lavage (BAL) immune cell counts 24 hours after aerosol challenge on day 15. Either Compound 3 in doses of 3, 10, and/or 30 mg/kg or vehicle were administered subcutaneously, 1-2 hours before and 4-6 hours after OVA aerosol challenge.

Setting [3] is: 3, 10 and 30 mg/kg subcutaneously, 24 hours after OVA aerosol challenge.

pIC50: −log10 of the molar value. Structures can show the parent of a compound that is named as a salt.

`NCc1ccc2c(c1)C1(CCN(C(=O)c3ccc(C#Cc4ccccc4)o3)CC1)CO2` (as salt: salt) [Cpd 3, 1-(5-phenylethynyl-furan-2-yl)carbonyl-5′-aminomethyl-spiro[piperidine-4,3′-(2H)-benzo[b]furan]]: the melting point was in the range of 179 to 181 °C.
As to `NC(=O)[C@@H]1CCCN1C(=O)[C@H](CCCN=C(N)N)NC(=O)c1ccc2ccccc2c1O` [APC-366], the “mean maximum decrease of forced expiratory volume in one second for late airway hyperresponsiveness” value with mild asthmatics (ρ=0.007) is 21%. Besides, in the data set on mild asthmatics (ρ=0.012), the “improvement for the late airway response” value is listed as 33%.
The compound `NCc1ccc2c(c1)C1(CCN(C(=O)c3ccc(C#Cc4ccccc4)o3)CC1)CO2` [Cpd 3, 1-(5-phenylethynyl-furan-2-yl)carbonyl-5′-aminomethyl-spiro[piperidine-4,3′-(2H)-benzo[b]furan]] had a pIC50 against human lung tryptase of 8.46. Also, in data set [1], the “acute early phase response (EP; 0-4 h) post antigen, specific airway resistance (SRL)” value was “did not effect a change”. For the same compound, the “increase in airway hyper-reactivity to carbachol (PC400) at 24 h” value in data set [1] (24 h post antigen challenge) is listed as “completely blocked”. Further, in data set [1] (inhaled Ascaris suum antigen challenge), the “late response (LP; 4-8 h post antigen), specific airway resistance (SRL)” value is “completely blocked”. Further, the “reduction in BAL eosinophils” value in data set [2] (30 mg/kg subcutaneously, 24 hours after OVA aerosol challenge) turned out to be 66%. Further, in data set [2] (30 mg/kg subcutaneously, relative to sensitized and challenged guinea pigs treated with vehicle), the “reduction in EAR as measured with whole body plethysmography (in PenH)” value was “greater than 93%”. In addition, in data set [2] (setting [3]), the “eosinophilic BAL cell counts” value was “dose-dependent reduction” and the “total BAL cell counts” value is reported as “dose-dependent reduction”.

These data come from US8158792B2, “Spiropiperidines for use as tryptase inhibitors” (Janssen Pharmaceutica N.V., priority 2007, dated 2012).
